Experimental findings from US20240254533A1, “METHODS FOR PRODUCING TRYPTAMINE DERIVATIVES” (OCTARINE BIO APS, priority 2021, published 2024) are described below.

A short description of this data set: Chemical stability of substituted tryptamine derivatives under alkaline, acidic, oxidative and heat stress. To be noted: for Degradation after 24 h exposure (in words): all conditions tested. The data set is classed as physicochemical. On the procedure: Chemical stability of substituted tryptamine derivatives was determined under alkaline, acidic, oxidative and heat stress as follows. 25 mM stock solutions of the target tryptamine molecules were prepared in 100% methanol. 15 μL is mixed with 5 μL of 400 mM HCl solution (final pH=1.1), 400 mM NaOH solution (Final pH=12.5), 12% H2O2 solution (final concentration 3%), or H2O pH 7.0. Acidic, alkaline and oxidative samples were incubated at 30° C. for 24 h while samples in water were incubated at 80° C. for 24 h. A control under ambient conditions was also prepared where 15 μL of the molecule was added to 5 μL H2O pH 7.0 and incubated at 30° C. After 24 h samples were placed on ice and 60 μL of ice-cold 100% methanol is added to each sample. Samples were centrifuged and transferred to HPLC vials for analysis. The remaining concentration was quantified by comparing to authentic analytical standards. Determining the presence of degradation products were determined by comparing with authentic analytical standards.
While the added phosphate group of psilocybin helps protect the molecule from degradation, psilocybin is also relatively unstable, prone to dephosphorylation to psilocin and subsequent degradation. The instability of these molecules hinders formulation and delivery of the compound for therapeutic use. To improve the chemical stability of the active compound psilocin, glycosylation can be used as an effective strategy. […] Degradation of each compound was assessed by measuring the amount of compound remaining after 24 h exposure to each condition.

[1] abbreviates: pH = 1.1 (HCl), 24 h incubation.
The mark [2] stands for this setting: pH = 12.5 (NaOH), 24 h incubation.

With `CN(C)CCc1c[nH]c2cccc(OP(=O)(O)O)c12` [Psilocybin], the “Degradation after 24 h exposure (in words)” value (from here on “Degradation”) is “much less degradation compared to psilocin”.
On to `CN(C)CCc1c[nH]c2cccc(O[C@@H]3O[C@H](CO)[C@@H](O)[C@H](O)[C@H]3O)c12` [Psilocin glucoside, psilocin-O-β-D-glucoside], for which the “Degradation” value is given as “practically no signs of degradation”. Besides, the “% left after 24 h” value (3% H2O2, 24 h incubation) was determined as 100.0%. In addition, the “% left after 24 h” value (4° C., 24 h incubation) stood at 100.0%. Moreover, where the note is “30° C., 24 h incubation”, the “% left after 24 h” value was found to be 100.0%. The “% left after 24 h” value (80° C., 24 h incubation) is given as 100.0%. Besides, the “% left after 24 h” value (Control) was 100.0%. Moreover, the “% left after 24 h” value under setting [1] was determined as 100.0%. The “% left after 24 h” value under setting [2] is reported as 100.0%.
For the compound `CN(C)CCc1c[nH]c2cccc(O)c12` [Psilocin], the “Degradation” value is reported as “complete degradation”. For the same compound, the “% left after 24 h” value (3% H2O2, 24 h incubation) was found to be 0.0%. The “% left after 24 h” value (4° C., 24 h incubation) was determined as 0.0%. For the same compound, the “% left after 24 h” value (30° C., 24 h incubation) is given as 0.0%. Also, for the setting “80° C., 24 h incubation”, the “% left after 24 h” value was determined as 0.0%. In addition, under “Control”, the “% left after 24 h” value stood at 100.0%. Further, under setting [1], the “% left after 24 h” value is 0.0%. Also, the “% left after 24 h” value under setting [2] is reported as 0.0%.
